According to patent publication US7371563B2, “Peelable and resealable devices for biochemical assays” (Surface Logix, Inc., priority 2000, dated 2008):

Target: T1, β1,4-galactosyltransferase (Bos taurus, UniProt P08037)
T1 sequence (P08037 1-402): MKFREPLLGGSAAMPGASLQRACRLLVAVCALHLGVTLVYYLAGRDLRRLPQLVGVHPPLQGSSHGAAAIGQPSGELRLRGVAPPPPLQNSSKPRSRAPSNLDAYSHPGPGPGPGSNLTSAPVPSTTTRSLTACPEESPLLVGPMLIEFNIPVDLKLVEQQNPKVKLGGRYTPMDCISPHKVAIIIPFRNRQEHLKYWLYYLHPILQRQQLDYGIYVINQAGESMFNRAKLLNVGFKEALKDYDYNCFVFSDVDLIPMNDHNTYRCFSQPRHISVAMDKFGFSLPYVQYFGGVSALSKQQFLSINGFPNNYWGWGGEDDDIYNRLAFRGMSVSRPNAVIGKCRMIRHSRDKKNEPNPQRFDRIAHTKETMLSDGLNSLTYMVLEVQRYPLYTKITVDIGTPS
Test: Glycosyltransferase assay on immobilized carbohydrates
Type: biochemical, bovine
Conditions: immobilized carbohydrate; UDP [^14C] galactose, 3.5 μM; phosphorimaging
Procedure: FIG. 41 represents the results of a glycosyltransferase assay. The surface comprises 3 different carbohydrate substrates defined by columns and a control column (no substrate). Each row was reacted with a different concentration of β1,4-galactosyltransferase and a constant concentration of sugar donor (UDP [^14C] galactose, 3.5 μM). The reaction was detected by phosphorimaging.
Referring to FIG. 41, in the glycosyltransferase assay, various carbohydrates were immobilized using a thiol chemical tag to bond to a monolayer thiolate bearing a maleimide group. A glycosyltransferase enzyme was added to the immobilized carbohydrates. The ability of the enzyme to add radioactively labeled sugars to the immobilized carbohydrates was measured. In the glycosyltransferase assay the enzyme that was employed is bovine recombinant β 1,4-galactosyltransferase. Preferably, the enzyme is at a concentration of about 10 pM to about 100 uM. More preferably, the enzyme is at a concentration of about 100 pM to about 1 uM. […]
Detection of glycosylation of the immobilized carbohydrate substrates on the base plate was performed radiometrically. The incorporation of ^14C was quantified by exposing a storage phosphor screen to the plate and then imaging it on a Variable Mode Imager (Typhoon 8600; Molecular Dynamics, Sunnyvale, Calif.). […]

SMILES: CC(=O)N[C@H]1C(O)O[C@H](CO)[C@@H](O)[C@@H]1O (stereo partly shown) [GlcNAc]
- substrate for β1,4-galactosyltransferase: only the immobilized GlcNAc was a substrate
